In patent US12077503B2, “Substituted cyclic amides and their use as herbicides” (FMC CORPORATION, priority 2015, dated 2024):

Legend:
Assay in all cases: Test G Post-Emergence Protocol
Assay type in all cases: in vivo
[1] = tested on: giant foxtail (Setaria faberi); details: Setaria faberi, post-emergence, 312 h; for pest or weed control at 15.625 g/ha: 15.625 g ai/ha, evaluated after 13 days (100=total damage to plant; 0=no damage to plant), read-out: Foxtail, Giant damage rating; for pest or weed control at 62.5 g/ha: 62.5 g ai/ha, read-out: Foxtail, Giant damage rating (100=total damage to plant; 0=no damage to plant); for pest or weed control at 62.5 g/ha / pest or weed control at 250 g/ha: evaluated after 13 days; for pest or weed control at 250 g/ha: 250 g ai/ha, read-out: damage to plant, Foxtail, Giant (100=total damage to plant; 0=no damage to plant)
In short: (§1)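 Post-emergence herbicidal damage, scored visually 0–100 at 13 days. Application at 15.625, 62.5 or 250 g/ha onto 8-day-old plants grown under glasshouse control.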

[2] = tested on: ivy-leaved morning glory (Ipomoea hederacea); details: Ipomoea, post-emergence, 312 h; for pest or weed control at 15.625 g/ha: 15.625 g ai/ha, evaluated after 13 days (100=total damage to plant; 0=no damage to plant), read-out: Morningglory, Ivy-leaved damage rating; for pest or weed control at 62.5 g/ha: 62.5 g ai/ha, read-out: Morningglory, Ivy-leaved damage rating (100=total damage to plant; 0=no damage to plant); for pest or weed control at 62.5 g/ha / pest or weed control at 250 g/ha: evaluated after 13 days; for pest or weed control at 250 g/ha: 250 g ai/ha, read-out: damage to plant, Morningglory, Ivy-leaved (100=total damage to plant; 0=no damage to plant)
In short: as §1

[3] = tested on: corn (Zea mays); details: Zea mays, post-emergence, 312 h; for plant injury at 15.625 g/ha: 15.625 g ai/ha, evaluated after 13 days (100=total damage to plant; 0=no damage to plant), read-out: Corn damage rating; for plant injury at 62.5 g/ha: 62.5 g ai/ha, read-out: Corn damage rating (100=total damage to plant; 0=no damage to plant); for plant injury at 62.5 g/ha / plant injury at 250 g/ha: evaluated after 13 days; for plant injury at 250 g/ha: 250 g ai/ha, read-out: damage to plant, Corn (100=total damage to plant; 0=no damage to plant)
In short: as §1

[4] = tested on: barnyardgrass (Echinochloa crus-galli); details: Echinochloa crus-galli, post-emergence, 312 h; for pest or weed control at 15.625 g/ha: 15.625 g ai/ha, evaluated after 13 days (100=total damage to plant; 0=no damage to plant), read-out: Barnyardgrass damage rating; for pest or weed control at 62.5 g/ha: 62.5 g ai/ha, read-out: Barnyardgrass damage rating (100=total damage to plant; 0=no damage to plant); for pest or weed control at 62.5 g/ha / pest or weed control at 250 g/ha: evaluated after 13 days; for pest or weed control at 250 g/ha: 250 g ai/ha, read-out: damage to plant, Barnyardgrass (100=total damage to plant; 0=no damage to plant)
In short: as §1

[5] = tested on: redroot pigweed (Amaranthus retroflexus); details: Amaranthus retroflexus, post-emergence, 312 h; for pest or weed control at 15.625 g/ha: 15.625 g ai/ha, evaluated after 13 days (100=total damage to plant; 0=no damage to plant), read-out: Pigweed, Redroot damage rating; for pest or weed control at 62.5 g/ha: 62.5 g ai/ha, read-out: Pigweed, Redroot damage rating (100=total damage to plant; 0=no damage to plant); for pest or weed control at 62.5 g/ha / pest or weed control at 250 g/ha: evaluated after 13 days; for pest or weed control at 250 g/ha: 250 g ai/ha, read-out: damage to plant, Pigweed, Redroot (100=total damage to plant; 0=no damage to plant)
In short: as §1

[6] = tested on: velvetleaf (Abutilon theophrasti); details: Abutilon theophrasti, post-emergence, 312 h; for pest or weed control at 15.625 g/ha: 15.625 g ai/ha, evaluated after 13 days (100=total damage to plant; 0=no damage to plant), read-out: Velvetleaf damage rating; for pest or weed control at 62.5 g/ha: 62.5 g ai/ha, read-out: Velvetleaf damage rating (100=total damage to plant; 0=no damage to plant); for pest or weed control at 62.5 g/ha / pest or weed control at 250 g/ha: evaluated after 13 days; for pest or weed control at 250 g/ha: 250 g ai/ha, read-out: damage to plant, Velvetleaf (100=total damage to plant; 0=no damage to plant)
In short: as §1

`CN1C[C@@H](c2ccc(C(F)(F)F)cc2)[C@H](C(=O)Nc2cc(C(F)(F)F)nn2C)C1=O` (racemic) [Compound 1510] gave a pest or weed control at 15.625 g/ha [1] of 0%, a pest or weed control at 62.5 g/ha [1] of 0% and a pest or weed control at 250 g/ha [1] of 0%. The pest or weed control at 15.625 g/ha [2] was 0%, the pest or weed control at 62.5 g/ha [2] was 0% and the pest or weed control at 250 g/ha [2] was 0%. It also gave a plant injury at 15.625 g/ha [3] of 0%, a plant injury at 62.5 g/ha [3] of 0% and a plant injury at 250 g/ha [3] of 10%. The pest or weed control at 15.625 g/ha [4] was 0%, the pest or weed control at 62.5 g/ha [4] was 0% and the pest or weed control at 250 g/ha [4] was 0%. For the same compound, the pest or weed control at 15.625 g/ha [5] was 0%, the pest or weed control at 62.5 g/ha [5] was 0% and the pest or weed control at 250 g/ha [5] was 20%. It also gave a pest or weed control at 15.625 g/ha [6] of 0%, a pest or weed control at 62.5 g/ha [6] of 0% and a pest or weed control at 250 g/ha [6] of 0%.
Work on `CN1C[C@@H](c2ccc(C(F)(F)F)cc2)[C@H](C(=O)Nc2ccc(C(F)(F)F)nc2Cl)C1=O` (racemic) [Compound 1542] yielded a pest or weed control at 15.625 g/ha [1] of 0%, a pest or weed control at 62.5 g/ha [1] of 0% and a pest or weed control at 250 g/ha [1] of 0%. It also gave a pest or weed control at 15.625 g/ha [2] of 0%, a pest or weed control at 62.5 g/ha [2] of 0% and a pest or weed control at 250 g/ha [2] of 0%. For the same compound, the plant injury at 15.625 g/ha [3] was 0%, the plant injury at 62.5 g/ha [3] was 0% and the plant injury at 250 g/ha [3] was 0%. For the same compound, the pest or weed control at 15.625 g/ha [4] was 0%, the pest or weed control at 62.5 g/ha [4] was 0% and the pest or weed control at 250 g/ha [4] was 0%. It also gave a pest or weed control at 15.625 g/ha [5] of 0%, a pest or weed control at 62.5 g/ha [5] of 0% and a pest or weed control at 250 g/ha [5] of 0%. The pest or weed control at 15.625 g/ha [6] was 0%, the pest or weed control at 62.5 g/ha [6] was 0% and the pest or weed control at 250 g/ha [6] was 0%.
Work on `CN1C[C@@H](c2ccc(C(F)(F)F)cc2)[C@H](C(=O)Nc2ncc(Br)cn2)C1=O` (racemic) [Compound 1514] yielded a pest or weed control at 15.625 g/ha [1] of 0%, a pest or weed control at 62.5 g/ha [1] of 0% and a pest or weed control at 250 g/ha [1] of 0%. For the same compound, the pest or weed control at 15.625 g/ha [2] was 0%, the pest or weed control at 62.5 g/ha [2] was 0% and the pest or weed control at 250 g/ha [2] was 0%. The plant injury at 15.625 g/ha [3] was 0%, the plant injury at 62.5 g/ha [3] was 10% and the plant injury at 250 g/ha [3] was 10%. The pest or weed control at 15.625 g/ha [4] was 0%, the pest or weed control at 62.5 g/ha [4] was 0% and the pest or weed control at 250 g/ha [4] was 0%. For the same compound, the pest or weed control at 15.625 g/ha [5] was 0%, the pest or weed control at 62.5 g/ha [5] was 0% and the pest or weed control at 250 g/ha [5] was 0%. For the same compound, the pest or weed control at 15.625 g/ha [6] was 0%, the pest or weed control at 62.5 g/ha [6] was 0% and the pest or weed control at 250 g/ha [6] was 0%.
With `CN1C[C@@H](c2ccc(C(F)(F)F)cc2)[C@H](C(=O)Nc2ncc(C#N)s2)C1=O` (racemic) [Compound 1528] the pest or weed control at 15.625 g/ha [1] was 0%, the pest or weed control at 62.5 g/ha [1] was 0% and the pest or weed control at 250 g/ha [1] was 0%. For the same compound, the pest or weed control at 15.625 g/ha [2] was 0%, the pest or weed control at 62.5 g/ha [2] was 0% and the pest or weed control at 250 g/ha [2] was 0%. The plant injury at 15.625 g/ha [3] was 0%, the plant injury at 62.5 g/ha [3] was 0% and the plant injury at 250 g/ha [3] was 0%. The pest or weed control at 15.625 g/ha [4] was 0%, the pest or weed control at 62.5 g/ha [4] was 0% and the pest or weed control at 250 g/ha [4] was 0%. The pest or weed control at 15.625 g/ha [5] was 0%, the pest or weed control at 62.5 g/ha [5] was 0% and the pest or weed control at 250 g/ha [5] was 0%. The pest or weed control at 15.625 g/ha [6] was 0%, the pest or weed control at 62.5 g/ha [6] was 0% and the pest or weed control at 250 g/ha [6] was 0%.
`CN1C[C@@H](c2ccc(C(F)(F)F)cc2)[C@H](C(=O)Nc2cnccc2Cl)C1=O` (racemic) [Compound 1541] gave a pest or weed control at 15.625 g/ha [1] of 0%, a pest or weed control at 62.5 g/ha [1] of 0% and a pest or weed control at 250 g/ha [1] of 50%. It also gave a pest or weed control at 15.625 g/ha [2] of 0%, a pest or weed control at 62.5 g/ha [2] of 0% and a pest or weed control at 250 g/ha [2] of 10%. For the same compound, the plant injury at 15.625 g/ha [3] was 0%, the plant injury at 62.5 g/ha [3] was 0% and the plant injury at 250 g/ha [3] was 10%. For the same compound, the pest or weed control at 15.625 g/ha [4] was 0%, the pest or weed control at 62.5 g/ha [4] was 0% and the pest or weed control at 250 g/ha [4] was 20%. For the same compound, the pest or weed control at 15.625 g/ha [5] was 0%, the pest or weed control at 62.5 g/ha [5] was 0% and the pest or weed control at 250 g/ha [5] was 20%. For the same compound, the pest or weed control at 15.625 g/ha [6] was 0%, the pest or weed control at 62.5 g/ha [6] was 0% and the pest or weed control at 250 g/ha [6] was 0%.
`Cc1c(NC(=O)[C@@H]2C(=O)N(C)C[C@H]2c2ccc(C(F)(F)F)cc2)ccc(F)c1F` (racemic) [Compound 1502] showed a pest or weed control at 15.625 g/ha [1] of 60%, a pest or weed control at 62.5 g/ha [1] of 80% and a pest or weed control at 250 g/ha [1] of 80%. For the same compound, the pest or weed control at 15.625 g/ha [2] was 0%, the pest or weed control at 62.5 g/ha [2] was 0% and the pest or weed control at 250 g/ha [2] was 20%. The plant injury at 15.625 g/ha [3] was 0%, the plant injury at 62.5 g/ha [3] was 30% and the plant injury at 250 g/ha [3] was 60%. For the same compound, the pest or weed control at 15.625 g/ha [4] was 20%, the pest or weed control at 62.5 g/ha [4] was 60% and the pest or weed control at 250 g/ha [4] was 70%. The pest or weed control at 15.625 g/ha [5] was 20%, the pest or weed control at 62.5 g/ha [5] was 30% and the pest or weed control at 250 g/ha [5] was 80%. The pest or weed control at 15.625 g/ha [6] was 0%, the pest or weed control at 62.5 g/ha [6] was 10% and the pest or weed control at 250 g/ha [6] was 40%.
